The values below come from article PMC10041525, “New Dual Inhibitors of Bacterial Topoisomerases with Broad-Spectrum Antibacterial Activity and In Vivo Efficacy against Vancomycin-Intermediate Staphylococcus aureus” (Journal of Medicinal Chemistry, 2023).

The test system of one assay is E. coli ATCC 25922. Nature of the assay: MIC broth microdilution (CLSI). The assay is classed as cell-based. The following applies: Escherichia coli, ATCC25922; read-out: MIC. In a few lines: (§1)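 CLSI broth microdilution in cation-adjusted Mueller Hinton broth 2, 5 × 10^4 cells per well, top inhibitor concentration 64 μg/mL (≤0.64% DMSO). Incubated 18 h at 37 °C with shaking at 150 rpm, triplicates; MIC is the lowest concentration keeping mean OD600 increment below 1.5-fold background.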
For orientation: Dilution methods test growth across graded concentrations, often in twofold steps.

The test system of another assay is E. faecium ATCC 700221. As to the kind of experiment: MIC broth microdilution (CLSI). The assay is classed as cell-based. The following applies: Enterococcus faecium, ATCC700221; read-out: MIC.
For assay [1], the system named is S. aureus (VISA) ATCC 700699. As to the kind of experiment: MIC broth microdilution (CLSI). The assay is classed as cell-based. The following applies: Staphylococcus aureus; read-out: MIC. In a few lines:
as §1

Assay [2] has as its system S. aureus (MRSA) ATCC 43300. Nature of the assay: MIC broth microdilution (CLSI). The assay is classed as cell-based. The following applies: Staphylococcus aureus. In a few lines: as §1
For another assay, the system named is P. aeruginosa PAO1. As to the kind of experiment: MIC broth microdilution (CLSI). The following applies: Pseudomonas aeruginosa; PAO1 used for 7l, 8b, 14, 16b, 16c. The assay is classed as cell-based. Here is the method: (§2) MICs (Tables 1 and S1–S3) were determined with a standard serial broth microdilution technique according to Clinical and Laboratory Standards Institute (CLSI) guidelines.[45] Cation-adjusted Mueller Hinton broth 2 (MHBII) was used for bacterial growth under standard laboratory conditions and for antimicrobial susceptibility tests. MHBII broth was prepared by dissolving 22 g of MHBII powder [containing beef extract (3 g), acid hydrolysate of casein (17.5 g), and starch (1.5 g); Becton Dickinson and Co.] in 1 L of water. To prepare MHBII agar, 14 g of agar (Bacto; Molar Chemicals) was added to 1 L of broth.
(§3) Bacterial strains were inoculated onto MHBII agar plates and grown overnight at 37 °C. Next, three individual colonies from each strain were inoculated into 1 mL of MHBII medium and propagated at 37 °C overnight, with agitation at 250 rpm. For Enterococcus sp., the cells were plated in brain–heart infusion [(BHI) medium] agar plates, and BHI broth was used to determine the MICs. […] The highest final DMSO concentration in the experiments was 0.64% (in the case of the 64 μg/mL concentration of the inhibitor). Following the dilutions, each well was seeded with 5 × 10^4 bacterial cells (in 100 μL final volume). Each measurement was performed in three parallel replicates, and to avoid possible edge effects in the microwell plates, the outside rows (A, H) were filled with sterile medium. Following the inoculations, the plates were covered with the lids and wrapped in polyethylene plastic bags, to minimize evaporation but to allow O2 transfer. The plates were incubated at 37 °C under continuous shaking at 150 rpm for 18 h. After incubation, the OD600 of each well was measured using a microplate reader (Synergy 2; Biotek). The MICs were defined as the antibiotic concentrations which inhibited the growth of the bacterial cultures; that is, the drug concentration where the average OD600 increment of the three technical replicates was below 1.5-fold the background OD increment.
(§4) cMIC, minimum inhibitory concentration
(§5) Bacterial strains that were used: S. aureus ATCC 29213, S. aureus (MRSA) ATCC 43300, S. aureus (VISA) ATCC 700699, E. faecalis ATCC 29212, E. faecium ATCC 700221,
(§6) E. coli ATCC 25922, P. aeruginosa ATCC 27853 (PAO1 for compounds 7l, 8b, 14), A. baumannii ATCC 17978 (ATCC 19606 for compounds 7l, 8b, 14), K. pneumoniae ATCC
(§7) Measurements were performed according to the Clinical and Laboratory Standards Institute guidelines, with three independent measurements.

Another assay relates to K. pneumoniae ATCC 13883. As to the kind of experiment: MIC broth microdilution (CLSI). The assay is classed as cell-based. The following applies: Klebsiella pneumoniae, ATCC13883; ATCC 13883 used for 7l, 8b, 14, 16b, 16c. As to the method: as §2, §3, §4, §5, §6, §7
The next assay has as its system A. baumannii ATCC 19606. Nature of the assay: MIC broth microdilution (CLSI). The assay is classed as cell-based. The following applies: Acinetobacter baumannii, ATCC19606. Here is the method:
as §2, §3, §4, §5, §6, §7

For assay [3], the system named is Enterococcus faecalis ATCC 29212. As to the kind of experiment: MIC broth microdilution (CLSI). The following applies: Enterococcus faecalis, ATCC29212; read-out: MIC. The assay is classed as cell-based, E. faecalis.
For a further assay, the target named is T1, topo IV from E. coli (Escherichia coli, UniProt P20083).
T1 construct: purchased Inspiralis
As to the kind of experiment: relaxation HTS plate assay. The following applies: IC50 [nM] E. coli TopoIV. The assay is classed as biochemical. In a few lines:
(§8)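 E. coli gyrase tested by supercoiling and topo IV by relaxation in high-throughput plate format. IC50 from seven inhibitor concentrations; mean of three independent measurements.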

The subject of another assay is S. aureus ATCC 29213. As to the kind of experiment: MIC broth microdilution (CLSI). The assay is classed as cell-based. The following applies: Staphylococcus aureus, ATCC29213. In a few lines:
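Cation-adjusted Mueller Hinton broth 2 microdilution, 5 × 10^4 cells per well in 100 μL, three parallel replicates, plates bagged to limit evaporation; growth read as OD600 after incubation.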

In the next assay the target is T2, DNA gyrase from E. coli (Escherichia coli, UniProt P0AES6).
T2 construct: purchased Inspiralis
Nature of the assay: supercoiling HTS plate assay. The following applies: IC50 [nM] E. coli DNA gyrase. The assay is classed as biochemical. In a few lines: as §8

Read-outs that look alike come from different tables or passages of the source.

T1 sequence (P0AFI2 whole entry): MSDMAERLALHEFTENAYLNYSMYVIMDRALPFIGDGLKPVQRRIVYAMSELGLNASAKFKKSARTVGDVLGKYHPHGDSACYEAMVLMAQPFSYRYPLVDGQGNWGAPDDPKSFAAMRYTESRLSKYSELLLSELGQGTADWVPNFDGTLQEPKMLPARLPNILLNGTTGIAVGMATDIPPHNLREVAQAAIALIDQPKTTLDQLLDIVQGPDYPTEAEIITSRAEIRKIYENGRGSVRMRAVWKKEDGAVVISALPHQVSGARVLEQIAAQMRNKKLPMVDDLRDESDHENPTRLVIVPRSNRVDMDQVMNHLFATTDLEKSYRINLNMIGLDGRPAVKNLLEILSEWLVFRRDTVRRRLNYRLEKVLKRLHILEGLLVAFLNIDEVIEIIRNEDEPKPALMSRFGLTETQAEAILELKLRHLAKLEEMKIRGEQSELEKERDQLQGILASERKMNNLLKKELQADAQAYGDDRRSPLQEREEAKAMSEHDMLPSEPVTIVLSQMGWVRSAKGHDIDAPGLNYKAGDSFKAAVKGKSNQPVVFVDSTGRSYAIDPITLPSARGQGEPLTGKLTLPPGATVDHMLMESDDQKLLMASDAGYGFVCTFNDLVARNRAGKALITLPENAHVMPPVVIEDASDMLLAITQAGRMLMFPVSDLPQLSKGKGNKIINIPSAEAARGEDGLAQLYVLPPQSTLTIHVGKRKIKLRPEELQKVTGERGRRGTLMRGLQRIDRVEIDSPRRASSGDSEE
T1 sequence (P20083 whole entry): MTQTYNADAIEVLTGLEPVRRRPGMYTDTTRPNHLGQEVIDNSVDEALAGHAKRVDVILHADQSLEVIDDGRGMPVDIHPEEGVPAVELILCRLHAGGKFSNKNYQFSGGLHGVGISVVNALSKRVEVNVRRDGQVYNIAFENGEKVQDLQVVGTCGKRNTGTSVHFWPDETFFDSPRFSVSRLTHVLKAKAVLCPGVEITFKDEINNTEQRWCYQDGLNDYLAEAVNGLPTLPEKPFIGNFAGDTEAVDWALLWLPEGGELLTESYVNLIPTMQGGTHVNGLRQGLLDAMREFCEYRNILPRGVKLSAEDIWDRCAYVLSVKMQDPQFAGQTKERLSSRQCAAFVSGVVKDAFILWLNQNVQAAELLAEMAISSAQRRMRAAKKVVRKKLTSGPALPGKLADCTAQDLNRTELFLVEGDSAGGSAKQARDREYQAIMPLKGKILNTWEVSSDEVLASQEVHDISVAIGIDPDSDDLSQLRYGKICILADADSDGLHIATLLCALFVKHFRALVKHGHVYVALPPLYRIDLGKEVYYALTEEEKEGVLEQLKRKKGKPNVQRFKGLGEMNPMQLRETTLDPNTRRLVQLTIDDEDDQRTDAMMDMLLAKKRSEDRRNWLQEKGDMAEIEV

As a reminder, the IC50 is the midpoint of a concentration-inhibition curve. As to `Cc1[nH]c(C(=O)Nc2nc3c(N4CC[C@H](N(C)C)C4)cc(C(=O)O)cc3s2)c(Cl)c1Cl.Cl.N` [7l, (S)-2-(3,4-Dichloro-5-methyl-1H-pyrrole-2-carboxamido)-4-(3-(dimethylamino)pyrrolidin-1-yl)benzo[d]thiazole-6-carboxylic Acid], the MIC was over 64 µg/mL in the assay on E. coli ATCC 25922; 0.25 µg/mL in the assay on E. faecium ATCC 700221; 0.5 µg/mL in [1]; 2 µg/mL in assay [2] (read-out: MIC); 2 µg/mL in assay [2] (read-out: MIC [µg/mL](S. aureus MRSA ATCC4330)); over 64 µg/mL in the assay with P. aeruginosa PAO1. Besides, the MIC is over 64 µg/mL with K. pneumoniae ATCC 13883; over 64 µg/mL in the assay on A. baumannii ATCC 19606 (ATCC 19606 used for 7l, 8b, 14, 16b, 16c, read-out: MIC); over 64 µg/mL with A. baumannii ATCC 19606 (read-out: MIC [µg/mL] (A. baumannii ATCC 19606 for compounds 7l, 8b, 14)); 1 µg/mL in assay [3]; 4 µg/mL with S. aureus ATCC 29213 (read-out: MIC); 4 µg/mL with S. aureus ATCC 29213 (read-out: MIC [µg/mL](S. aureus ATCC 29213)). The figures for the IC50 on topo IV from E. coli and against DNA gyrase from E. coli were 210 ± 80 nM and under 10 nM, respectively.
